Source: PubChem BioAssay AID248 (DTP/NCI, 2004)
“And” between values parts separate entries of the source, which are not always exact repeats. Equal values may be shown once. Toxic doses and inconclusive results are not listed. No stated cut-off is given here; in the data, active means T/C of 150% or more; inactive means T/C below 125%.

System: L1210 leukemia ip in BDF1 mice, survival T/C
Assay: NCI In Vivo Anticancer Drug Screen. Data for tumor model L1210 Leukemia (intraperitoneal) in B6D2F1 (BDF1) mice
Details: endpoint: mean survival time, higher = longer survival
Summary of the method: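 Tumor was transplanted into mice, which were then dosed with test compound or vehicle alone. Survival was recorded for each group, and the treated figure was expressed relative to the control figure.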

[1] = dose: 100.0 mg/kg/injection, schedule: Q04DX003 (ip), vehicle: Klucel (hydroxypropylcellulose) (HPC)
[2] = dose: 200.0 mg/kg/injection, schedule: Q04DX003 (ip), vehicle: Klucel (hydroxypropylcellulose) (HPC)
[3] = dose: 100.0 mg/kg/injection, schedule: Q01DX001 (ip), vehicle: saline
[4] = dose: 200.0 mg/kg/injection, schedule: Q01DX001 (ip), vehicle: saline
[5] = dose: 200.0 mg/kg/injection, schedule: Q04DX003 (ip), vehicle: saline
[6] = dose: 400.0 mg/kg/injection, schedule: Q01DX001 (ip), vehicle: saline
[7] = dose: 100.0 mg/kg/injection, schedule: Q01DX009 (ip), vehicle: saline with Tween-80
[8] = dose: 100.0 mg/kg/injection, schedule: Q04DX003 (ip), vehicle: saline with Tween-80
[9] = dose: 200.0 mg/kg/injection, schedule: Q01DX009 (ip), vehicle: saline with Tween-80
[10] = dose: 200.0 mg/kg/injection, schedule: Q04DX003 (ip), vehicle: saline with Tween-80
[11] = dose: 400.0 mg/kg/injection, schedule: Q04DX003 (ip), vehicle: saline with Tween-80
[12] = dose: 400.0 mg/kg/injection, schedule: Q04DX003 (ip), vehicle: Klucel (hydroxypropylcellulose) (HPC)
[13] = dose: 100.0 mg/kg/injection, schedule: Q01DX001 (ip), vehicle: carboxymethylcellulose (CMC)
[14] = dose: 200.0 mg/kg/injection, schedule: Q01DX001 (ip), vehicle: carboxymethylcellulose (CMC)
[15] = dose: 400.0 mg/kg/injection, schedule: Q01DX001 (ip), vehicle: carboxymethylcellulose (CMC)
[16] = dose: 100.0 mg/kg/injection, schedule: Q04DX002 (ip), vehicle: Klucel (hydroxypropylcellulose) (HPC)
[17] = dose: 200.0 mg/kg/injection, schedule: Q01DX009 (ip), vehicle: Klucel (hydroxypropylcellulose) (HPC)

Measured: T/C

O=C(O)C(c1ccccc1)N1C(=O)c2ccccc2C1=O (centres undefined)
inactive: dose: 50.0 mg/kg/injection, schedule: Q04DX003 (ip), vehicle: Klucel (hydroxypropylcellulose) (HPC) 104 % of control | [1] 109 % of control | [2] 104 % of control

O=C(CI)OCCCl
inactive: dose: 12.5 mg/kg/injection, schedule: Q01DX009 (ip), vehicle: other 94 % of control | dose: 25.0 mg/kg/injection, schedule: Q01DX009 (ip), vehicle: other 97 % of control | dose: 50.0 mg/kg/injection, schedule: Q01DX009 (ip), vehicle: other 97 % of control

CCC(=O)OCC1OC(n2cc(F)c(=O)[nH]c2=O)CC1OC(=O)CC (centres undefined)
inactive: dose: 50.0 mg/kg/injection, schedule: Q01DX001 (ip), vehicle: saline 101 % of control | dose: 89.0 mg/kg/injection, schedule: Q01DX015 (ip), vehicle: saline 117 % of control | [3] 101 % of control | dose: 100.0 mg/kg/injection, schedule: Q04DX003 (ip), vehicle: saline 104 % of control | [4] 101 % of control | [5] 114 % of control | dose: 264.0 mg/kg/injection, schedule: Q04DX003 (ip), vehicle: saline 111 % of control and 112 % of control | dose: 300.0 mg/kg/injection, schedule: Q01DX015 (ip), vehicle: saline 115 % of control | [6] 113 % of control | dose: 400.0 mg/kg/injection, schedule: Q04DX003 (ip), vehicle: saline 108 % of control

O=C(O)CCN(Cc1ccccc1)Cc1ccccc1
inactive: [7] 101 % of control | [8] 108 % of control | [9] 98 % of control | [10] 88 % of control | dose: 400.0 mg/kg/injection, schedule: Q01DX009 (ip), vehicle: saline with Tween-80 98 % of control | [11] 104 % of control

O=C(O)c1c(F)c(F)c(Oc2c(F)c(F)c(F)c(F)c2F)c(F)c1F
inactive: [1] 95 % of control | [2] 93 % of control

CC(=O)C(CCC(=O)O)(CCC(=O)O)c1ccccc1
inactive: dose: 30.0 mg/kg/injection, schedule: Q01DX Z (ip), vehicle: other 100 % of control | dose: 60.0 mg/kg/injection, schedule: Q01DX Z (ip), vehicle: other 101 % of control | [1] 92 % of control | dose: 120.0 mg/kg/injection, schedule: Q01DX Z (ip), vehicle: other 95 % of control | [2] 97 % of control | dose: 240.0 mg/kg/injection, schedule: Q01DX Z (ip), vehicle: other 95 % of control | [12] 102 % of control

Nc1ccc2c(c1)C(=O)c1cc(N)c(Br)cc1-2
inactive: [13] 93 % of control | [14] 95 % of control | [15] 98 % of control

N=C(N)c1ccc(OCCCCOc2ccc(NC(=O)Nc3ccc(S(=O)(=O)F)cc3Cl)cc2)cc1
inactive: dose: 100.0 mg/kg/injection, schedule: Q01DX001 (ip), vehicle: saline with Tween-80 91 % of control | dose: 200.0 mg/kg/injection, schedule: Q01DX001 (ip), vehicle: saline with Tween-80 90 % of control

CCOC(=O)NCC(CCN(C)C)(CN(C)C)c1cccc2ccccc12 (centres undefined)
inactive: dose: 50.0 mg/kg/injection, schedule: Q04DX002 (ip), vehicle: Klucel (hydroxypropylcellulose) (HPC) 102 % of control | [16] 106 % of control

CCc1nc(N[N+](=O)[O-])nc(-c2ccccc2)c1-c1ccccc1O
inactive: [16] 107 % of control | dose: 200.0 mg/kg/injection, schedule: Q04DX002 (ip), vehicle: Klucel (hydroxypropylcellulose) (HPC) 94 % of control | dose: 400.0 mg/kg/injection, schedule: Q04DX002 (ip), vehicle: Klucel (hydroxypropylcellulose) (HPC) 107 % of control

OCC1OC(n2cnc3c(SCc4ccccc4)nc(Cl)cc32)C(O)C1O (centres undefined)
inactive: dose: 100.0 mg/kg/injection, schedule: Q01DX005 (ip), vehicle: saline 95 % of control | dose: 200.0 mg/kg/injection, schedule: Q01DX005 (ip), vehicle: saline 93 % of control

CC(C)C1(c2ccsc2)NC(=O)NC1=O (centres undefined)
inactive: [3] 94 % of control | [4] 100 % of control | [6] 91 % of control

CCCCCCC(=O)OCCN1CCN(CC/C=C2\c3ccccc3Sc3ccc(C(F)(F)F)cc32)CC1
inactive: dose: 50.0 mg/kg/injection, schedule: Q01DX001 (ip), vehicle: carboxymethylcellulose (CMC) 94 % of control | dose: 50.0 mg/kg/injection, schedule: Q01DX009 (ip), vehicle: saline 123 % of control | [13] 92 % of control | dose: 100.0 mg/kg/injection, schedule: Q01DX009 (ip), vehicle: saline 108 % of control | dose: 132.0 mg/kg/injection, schedule: Q04DX003 (ip), vehicle: saline 103 % of control | [14] 94 % of control | [5] 110 % of control | [15] 94 % of control

c1ccc2c(c1)ccc1cc3cccc[n+]3cc12
inactive: dose: 0.31 mg/kg/injection, schedule: Q01DX009 (ip), vehicle: saline 98 % of control | dose: 0.62 mg/kg/injection, schedule: Q01DX009 (ip), vehicle: saline 98 % of control | dose: 1.25 mg/kg/injection, schedule: Q01DX009 (ip), vehicle: saline 101 % of control and 104 % of control | dose: 5.0 mg/kg/injection, schedule: Q04DX003 (ip), vehicle: saline 102 % of control | dose: 10.0 mg/kg/injection, schedule: Q04DX003 (ip), vehicle: saline 96 % of control

CC1CC(=O)C2CC(Cl)CCC2(C)C1C (centres undefined)
inactive: [8] 101 % of control | dose: 150.0 mg/kg/injection, schedule: Q01DX009 (ip), vehicle: Klucel (hydroxypropylcellulose) (HPC) 91 % of control | dose: 225.0 mg/kg/injection, schedule: Q01DX009 (ip), vehicle: Klucel (hydroxypropylcellulose) (HPC) 97 % of control

CC(C)(C(O)c1ccccc1)[N+](=O)[O-] (centres undefined)
inactive: [8] 101 % of control | [10] 97 % of control | [11] 101 % of control

Cc1ccc(Cl)cc1NC(=O)c1cccc(C(=O)Nc2cc(Cl)ccc2C)c1
inactive: dose: 50.0 mg/kg/injection, schedule: Q01DX009 (ip), vehicle: Klucel (hydroxypropylcellulose) (HPC) 91 % of control | dose: 100.0 mg/kg/injection, schedule: Q01DX009 (ip), vehicle: Klucel (hydroxypropylcellulose) (HPC) 100 % of control | [1] 98 % of control | [17] 91 % of control | [2] 88 % of control

O=c1oc2c(CN3CCCC3)c(O)ccc2c2c1CCCC2
inactive: [13] 91 % of control | [14] 98 % of control

O=C(NCNC(=O)c1ccccc1)c1ccccc1
inactive: [1] 100 % of control | [17] 103 % of control | [2] 90 % of control | dose: 400.0 mg/kg/injection, schedule: Q01DX009 (ip), vehicle: Klucel (hydroxypropylcellulose) (HPC) 92 % of control | [12] 103 % of control

COc1ccc2ccccc2n1
inactive: dose: 100.0 mg/kg/injection, schedule: Q01DX001 (ip), vehicle: Klucel (hydroxypropylcellulose) (HPC) 94 % of control | [7] 103 % of control | [8] 103 % of control | dose: 200.0 mg/kg/injection, schedule: Q01DX001 (ip), vehicle: Klucel (hydroxypropylcellulose) (HPC) 102 % of control | [9] 90 % of control | [10] 98 % of control | dose: 400.0 mg/kg/injection, schedule: Q01DX001 (ip), vehicle: Klucel (hydroxypropylcellulose) (HPC) 105 % of control
